# Data from publication PMC2180168 (BMC Pharmacology, 2007).
# Key:
# [1] = system: refractory/relapsed myeloma; conditions: patients with refractory/relapsed myeloma; cited from earlier work
# [2] = system: anaplastic large cell lymphoma with NPM-ALK fusion protein cell lines; set-up: method as in PMID 11532349; conditions: cited from earlier work
# [3] = system: multiple myeloma cell line; conditions: cited from earlier work
# [4] = system: Hodgkin lymphoma cell lines; set-up: method as in PMID 11953894; conditions: cited from earlier work
# in vivo = conditions: CD1, mouse, plasma, ip
Compound,response in phase II trial [1],effect in anaplastic large cell lymphoma cell lines [2],in vitro antiproliferative effect on a multiple myeloma cell line [3],effect in Hodgkin lymphoma cell lines [4],AUC(0-t) (in vivo; 12 mg/kg/d),AUC(0-t) (in vivo; 12 mg/kg/day),half-life (in vivo; 12 mg/kg/day)
Cc1ccc(NC(=O)c2ccc(CN3CCN(C)CC3)cc2)cc1Nc1nccc(-c2cccnc2)n1 [imatinib],no response,minimal effect,antiproliferative effect,minimal effect,–,–,–
COc1cc([C@@H]2c3cc4c(cc3[C@@H](O[C@@H]3O[C@@H]5CO[C@@H](C)O[C@H]5[C@H](O)[C@H]3O)[C@H]3COC(=O)[C@H]23)OCO4)cc(OC)c1O [etoposide],–,–,–,–,17.9 µg·h/mL,20 µg·h/mL,14.4 min
